Results from the supplement of paper PMC10307832.

Experiments:
Assay in all cases: relative viability (nuclei count vs DMSO), 5 days (fraction); higher = more cells survive
BEN = test system: BEN
How it was run: (§1)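 One day after seeding in 1536-well plates, lung cancer cell lines were dosed by pin tool. Dosing was either single-drug or a fixed anchor-drug dose plus five library-drug doses (not always all listed) in √10 steps. After 5 days, nuclei were stained in one fix-and-stain step and counted on 4× images, and relative viability is the nuclei count of treated wells over that of vehicle wells, given as the median of duplicate plates.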

EKVX = test system: EKVX
How it was run: as §1

HCC-366 = test system: HCC-366
How it was run: as §1

HCC-44 = test system: HCC-44
How it was run: as §1

LOU-NH91 = test system: LOU-NH91
How it was run: as §1

LU99A = test system: LU99A
How it was run: as §1

NCI-H1355 = test system: NCI-H1355
How it was run: as §1

NCI-H1395 = test system: NCI-H1395
How it was run: as §1

NCI-H1437 = test system: NCI-H1437
How it was run: as §1

NCI-H1650 = test system: NCI-H1650
How it was run: as §1

NCI-H1651 = test system: NCI-H1651
How it was run: as §1

NCI-H1734 = test system: NCI-H1734
How it was run: as §1

NCI-H1755 = test system: NCI-H1755
How it was run: as §1

NCI-H1975 = test system: NCI-H1975
How it was run: as §1

NCI-H2023 = test system: NCI-H2023
How it was run: as §1

NCI-H2085 = test system: NCI-H2085
How it was run: as §1

NCI-H2342 = test system: NCI-H2342
How it was run: as §1

NCI-H358 = test system: NCI-H358
How it was run: as §1

NCI-H441 = test system: NCI-H441
How it was run: as §1

NCI-H460 = test system: NCI-H460
How it was run: as §1

NCI-H838 = test system: NCI-H838
How it was run: as §1

O=C(O)c1ccc(-c2c[nH]c3ncc(-c4ccccc4)cc23)cc1C1CCCC1 + Nc1ncn([C@H]2C[C@H](O)[C@@H](CO)O2)c(=O)n1 [Decitabine] (partner 2 µM)
relative viability (BEN; first compound 0.04 µM): 0.621 | relative viability (BEN; first compound 0.1265 µM): 0.901 | relative viability (BEN; first compound 0.4 µM): 0.692 | relative viability (BEN; first compound 1.265 µM): 0.585 | relative viability (EKVX; first compound 0.04 µM): 0.341 | relative viability (EKVX; first compound 0.1265 µM): 0.362 | relative viability (EKVX; first compound 0.4 µM): 0.336 | relative viability (EKVX; first compound 1.265 µM): 0.368 | relative viability (HCC-366; first compound 0.04 µM): 0.336 | relative viability (HCC-366; first compound 0.1265 µM): 0.342 | relative viability (HCC-366; first compound 0.4 µM): 0.363 | relative viability (HCC-366; first compound 1.265 µM): 0.3 | relative viability (HCC-44; first compound 0.04 µM): 0.973 | relative viability (HCC-44; first compound 0.1265 µM): 0.95 | relative viability (HCC-44; first compound 0.4 µM): 0.962 | relative viability (HCC-44; first compound 1.265 µM): 0.864 | relative viability (LOU-NH91; first compound 0.04 µM): 0.815 | relative viability (LOU-NH91; first compound 0.1265 µM): 0.859 | relative viability (LOU-NH91; first compound 0.4 µM): 0.832 | relative viability (LOU-NH91; first compound 1.265 µM): 0.718 | relative viability (LU99A; first compound 0.04 µM): 0.88 | relative viability (LU99A; first compound 0.1265 µM): 0.837 | relative viability (LU99A; first compound 0.4 µM): 0.822 | relative viability (LU99A; first compound 1.265 µM): 0.576 | relative viability (NCI-H1355; first compound 0.04 µM): 0.337 | relative viability (NCI-H1355; first compound 0.1265 µM): 0.331 | relative viability (NCI-H1355; first compound 0.4 µM): 0.408 | relative viability (NCI-H1355; first compound 1.265 µM): 0.307 | relative viability (NCI-H1395; first compound 0.04 µM): 0.727 | relative viability (NCI-H1395; first compound 0.1265 µM): 0.697 | relative viability (NCI-H1395; first compound 0.4 µM): 0.731 | relative viability (NCI-H1395; first compound 1.265 µM): 0.728 | relative viability (NCI-H1437; first compound 0.04 µM): 0.533 | relative viability (NCI-H1437; first compound 0.1265 µM): 0.572 | relative viability (NCI-H1437; first compound 0.4 µM): 0.517 | relative viability (NCI-H1437; first compound 1.265 µM): 0.336 | relative viability (NCI-H1650; first compound 0.04 µM): 0.409 | relative viability (NCI-H1650; first compound 0.1265 µM): 0.345 | relative viability (NCI-H1650; first compound 0.4 µM): 0.404 | relative viability (NCI-H1650; first compound 1.265 µM): 0.263 | relative viability (NCI-H1651; first compound 0.04 µM): 0.477 | relative viability (NCI-H1651; first compound 0.1265 µM): 0.616 | relative viability (NCI-H1651; first compound 0.4 µM): 0.57 | relative viability (NCI-H1651; first compound 1.265 µM): 0.54 | relative viability (NCI-H1734; first compound 0.04 µM): 0.528 | relative viability (NCI-H1734; first compound 0.1265 µM): 0.499 | relative viability (NCI-H1734; first compound 0.4 µM): 0.461 | relative viability (NCI-H1734; first compound 1.265 µM): 0.437 | relative viability (NCI-H1755; first compound 0.04 µM): 0.699 | relative viability (NCI-H1755; first compound 0.1265 µM): 0.753 | relative viability (NCI-H1755; first compound 0.4 µM): 0.713 | relative viability (NCI-H1755; first compound 1.265 µM): 0.705 | relative viability (NCI-H1975; first compound 0.04 µM): 0.393 | relative viability (NCI-H1975; first compound 0.1265 µM): 0.447 | relative viability (NCI-H1975; first compound 0.4 µM): 0.554 | relative viability (NCI-H1975; first compound 1.265 µM): 0.376 | relative viability (NCI-H2023; first compound 0.04 µM): 0.191 | relative viability (NCI-H2023; first compound 0.1265 µM): 0.243 | relative viability (NCI-H2023; first compound 0.4 µM): 0.216 | relative viability (NCI-H2023; first compound 1.265 µM): 0.17 | relative viability (NCI-H2085; first compound 0.04 µM): 0.588 | relative viability (NCI-H2085; first compound 0.1265 µM): 0.548 | relative viability (NCI-H2085; first compound 0.4 µM): 0.56 | relative viability (NCI-H2085; first compound 1.265 µM): 0.366 | relative viability (NCI-H2342; first compound 0.04 µM): 0.724 | relative viability (NCI-H2342; first compound 0.1265 µM): 0.663 | relative viability (NCI-H2342; first compound 0.4 µM): 0.836 | relative viability (NCI-H2342; first compound 1.265 µM): 0.731 | relative viability (NCI-H358; first compound 0.04 µM): 0.193 | relative viability (NCI-H358; first compound 0.1265 µM): 0.218 | relative viability (NCI-H358; first compound 0.4 µM): 0.172 | relative viability (NCI-H358; first compound 1.265 µM): 0.115 | relative viability (NCI-H441; first compound 0.04 µM): 0.221 | relative viability (NCI-H441; first compound 0.1265 µM): 0.254 | relative viability (NCI-H441; first compound 0.4 µM): 0.251 | relative viability (NCI-H441; first compound 1.265 µM): 0.251 | relative viability (NCI-H460; first compound 0.04 µM): 0.521 | relative viability (NCI-H460; first compound 0.1265 µM): 0.531 | relative viability (NCI-H460; first compound 0.4 µM): 0.468 | relative viability (NCI-H460; first compound 1.265 µM): 0.459 | relative viability (NCI-H838; first compound 0.04 µM): 0.45 | relative viability (NCI-H838; first compound 0.1265 µM): 0.475 | relative viability (NCI-H838; first compound 0.4 µM): 0.416 | relative viability (NCI-H838; first compound 1.265 µM): 0.357
